Earlier results on one compound are cited in patent publication US12280031B2, “Teriflunomide topical pharmaceutical compositions” (APRAMITHA INNOVATIONS PRIVATE LIMITED, priority 2018, dated 2025).

One may read the pKa as the pH at which an ionisable group is half protonated.

One series deals with patients. To be noted: oral teriflunomide, dose-dependent.

Regarding `C/C(O)=C(\C#N)C(=O)Nc1ccc(C(F)(F)F)cc1` [Teriflunomide, (Z)-2-cyano-3-hydroxy-but-2-enoic acid-(4′-trifluoromethylphenyl)-amide], the pKa is recorded as 5.2. Besides, the solubility in water entry (water) is recorded as “very slightly soluble”. Also, in the series with patients, the adverse effects result is “nausea, diarrhoea, hair thinning/decreased hair density, and elevated alanine aminotransferase (ALT) levels”.
